Here are results for one sequence from PMC8538057, “Direct Delivery of ANA-TA9, a Peptide Capable of Aβ Hydrolysis, to the Brain by Intranasal Administration” (Pharmaceutics, 2021).

Ends that are not written are not given here.

Data set [1] in a line: Disposition and nasal absorption of ANA-TA9 in rats (plasma pharmacokinetics after i.v. bolus, i.v. infusion and i.n. administration). As to conditions: rat. The data set is classed as in vivo, Male Wistar/ST rats. The protocol: For i.n. administration, ANA-TA9 was dissolved in PBS at a concentration of 100 mg/mL. For intravenous (i.v.) administration, the nasal solution was diluted to 10 mg/mL with PBS. For i.v. infusion, ANA-TA9 was dissolved in PBS to a concentration of 12 mg/mL. The rats were anesthetized through i.p. administration of a mixture of medetomidine (0.15 mg/kg body weight), midazolam (2 mg/kg body weight), and butorphanol (2.5 mg/kg body weight). The right femoral artery was cannulated with polyethylene tubing. ANA-TA9 was injected into the left femoral vein of 3 rats at a dose of 2 mg (200 μL of a 10 mg/mL PBS solution). Those 3 rats nasally received the same dose of ANA-TA9 (20 μL of a 100 mg/mL PBS solution) under anesthesia. For nasal administration, a micropipette was used. After i.n. administration, the animals were kept conscious in a rat cage ([…], Tokyo, Japan) throughout the experiment after recovery from anesthesia. The PBS solution of ANA-TA9 (12 mg/mL) was infused intravenously for 10 min at a 25 μL/min flow rate. The infused dose was 3 mg/rat. At the appropriate time intervals after administration, blood samples were taken, heparinized, and immediately cooled down on ice, followed by centrifugation at 15,000 rpm for 5 min to obtain the plasma. The plasma samples were stored at -40 °C until the assay. In the preliminary study, it was confirmed that ANA-TA9 stored at -40 °C is stable for at least 2 weeks. The plasma and brain concentrations of ANA-TA9 were determined by LC/MS, LC-20A, and LCMS-2020 (SHIMADZU, Kyoto, Japan). Briefly, 100 μL of the plasma were mixed with 1000 μL of methanol. […] To the dissected brain tissue, 100 μL of ice-cold purified water were added, and the mixture was homogenized under ice-cold conditions. To the homogenate, 4000 μL of ice-cold methanol were added. […] The residues were reconstituted with 100 μL of the mobile phase of the chromatography. In the preliminary study, it was confirmed that the effect of rapid degradation of ANA-TA9 on the assay could be excluded by the treatment on the blood and brain tissues mentioned above. Chromatographic separation was performed using a C18 analytical column (TSKgel ODS 100V, 3 μm, 2.0 mm × 100 mm; TOSOH, Tokyo, Japan). The mobile phase was acetonitrile/0.1% acetic acid (10/90), and the flow rate was 0.2 mL/min. ANA-TA9 eluting from the column was detected with mass spectrometry under the positive mode. Nitrogen gas was used for nebulization at a flow rate of 1.5 L/min. Other conditions (temperature and voltage) were set as the default. The calibration curves of ANA-TA9 in the plasma and the brain were determined. […] The area under the plasma concentration-time profile (AUC) after i.v. and i.n. administration was obtained based on the linear trapezoidal rules. In the case of the i.n. application, the concentrations of the last three samples were extrapolated to estimate the area after the last sampling time. The dose was divided by the AUC to obtain the clearance. After normalization of the AUC with each dose, the bioavailability was calculated by the division of the normalized i.n. AUC by the normalized AUC after i.v. infusion.

Data set [2] can be described thus: In vitro stability in the whole blood. The data set is classed as in vitro ADME, rat. The protocol: After the anesthetization of rats with an i.p. application of the anesthetic mixture, the cerebrospinal fluid (CSF) was collected by cisternal puncture, followed by the collection of whole blood from the polyethylene cannula inserted into the right femoral artery. The blood was heparinized and centrifuged at 15,000 rpm for 10 min at 4 °C, and the supernatant was collected as plasma.
ANA-TA9 was dissolved in PBS at a concentration of 0.1 mg/mL or 1 mg/mL. Immediately before the incubation, 5 μL or 10 μL of the ANA-TA9 solution was added to 45 μL or 90 μL of CSF or plasma, respectively. Similarly, 10 μL of the ANA-TA9 solution was added to 90 μL of whole blood. At predetermined times after the incubation at 37 °C, the samples were cooled by placing them on ice. Methanol (1 mL) was added to the plasma and whole blood for deproteinization. The mixtures were then vortexed and centrifuged at 15,000 rpm for 5 min at 4 °C. The supernatant was transferred to tubes and evaporated to dryness. The residue was reconstituted with 100 μL of the mobile phase of LC/MS mentioned below. The concentrations of ANA-TA9 in the plasma and whole blood were measured by LC/MS. The ANA-TA9 concentrations were measured in the CSF samples by LC/MS without any treatments.
Chromatographic separation was performed using a C18 analytical column (TSKgel ODS 100V, 3 μm, 2.0 mm × 100 mm; TOSOH, Tokyo, Japan). The mobile phase was acetonitrile/0.1% acetic acid (10/90), and the flow rate was 0.2 mL/min. ANA-TA9 eluting from the column was detected with mass spectrometry under the positive mode. Nitrogen gas was used for nebulization at a flow rate of 1.5 L/min. Other conditions (temperature and voltage) were set as the default. The calibration curves of ANA-TA9 in the plasma and the brain were determined.

The next data set relates to Aβ42. As to conditions: also three Aβ fragment peptides, particularly Aβ11–29; cited from earlier work. The text has this:
Recently, we reported the proteolytic activity of the shorter synthetic peptides JAL-TA9 (YKGSGFRMI) and ANA-TA9 (SKGQAYRMI), derived from the Box A region of the Tob1 and ANA/BTG3 proteins. These peptides cleave Aβ42 and three Aβ fragment peptides, particularly Aβ11–29 originating from the central region, which is considered the core region of Aβ42 aggregation/oligomerization. We gave these peptides the general name Catalytide. Catalytides such as JAL-TA9 and ANA-TA9 are attractive candidate peptide drugs for a novel strategy for preventing and treating AD.

[3] abbreviates: male, Wistar/ST, in vivo, inhaled or intranasal, 2 mg.
The mark [4] stands for this setting: male, Wistar/ST, in vivo, iv, 2 mg.
Where [5] appears, read: male, Wistar/ST, in vivo, iv, 3 mg/animal.

Regarding SKGQAYRMI [ANA-TA9], in data set [1] (male, Wistar/ST, plasma, inhaled or intranasal, i.n. 2 mg, dose-normalized i.n. AUC divided by normalized AUC after i.v. infusion, mean ± S.E. of three experiments, read-out: F (bioavailability), i.n.), the bioavailability (usually the share of a dose that reaches the circulation, judged against a reference dose that is usually intravenous) worked out at 36 ± 4.65%. Also, in data set [1] (setting [3]), the Cmax (as a rule, the maximum level reached in the sampled fluid or tissue) came to 863 ± 187 ng/mL and the Tmax (in general, the time from dosing to the highest level) was 1 min. Besides, in data set [1] (setting [4]), the half-life (commonly the time needed for the level to fall by half in the phase considered) is less than 1 min, the level at 0.5 min was 575 ± 26 ng/mL and the level at 1 min is 111 ± 10 ng/mL. In addition, in data set [1] (setting [5]), the area under the curve (AUC) (in general, concentration integrated over time) was 215 ng·h/mL and the clearance was determined as 260 ± 13.8 mL/min. Besides, the level at 0.25 h in data set [1] (male, Wistar/ST, in vivo, iv, 3 mg/rat) turned out to be 172 ± 121 ng/mL. In addition, the “AUC, i.n.” value in data set [1] (i.n. 2 mg (20 μL of 100 mg/mL PBS solution), plasma, trapezoidal with extrapolation, mean ± S.E. of three experiments) was 3.10 ± 0.782 µg·min/mL. Also, in data set [1] (in vivo, iv), the “plasma concentration at 20 min (after end of i.v. infusion)” value was “below the limit of detection”. The “initial concentration in the whole blood” value in data set [2] (rat whole blood (heparinized), 10 μL ANA-TA9 solution added to 90 μL, 37 °C, time 0, LC/MS, three experiments) is on record as 80 µg/mL. Moreover, in data set [2] (rat whole blood, 10 μL ANA-TA9 solution added to 90 μL, 37 °C, 5 min, LC/MS, three experiments), the “concentration of ANA-TA9 in the whole blood 5 min after the start of the incubation” value stood at 20000 ng/mL. For the same sequence, the “initial concentration in the whole blood, % of the expected value” in data set [2] (rat whole blood, time 0, LC/MS) worked out at 80%. Further, in the data set with Aβ42, the “cleavage of Aβ42 (proteolytic activity)” value was “cleave Aβ42”.
